We go through eight molecules from ChEMBL document CHEMBL3414499, “Characterization of two distinct structural classes of selective aldehyde dehydrogenase 1A1 inhibitors” (J Med Chem, 2015).

pIC50: −log10 of the molar value. Calls of active or inactive are those of the source. No cut-off for these calls is given here. Some results are limits rather than exact numbers.

In assay [1] the target is T1, Aldehyde dehydrogenase, dimeric NADP-preferring (Homo sapiens) (UniProt P30838).
T1 sequence (whole entry): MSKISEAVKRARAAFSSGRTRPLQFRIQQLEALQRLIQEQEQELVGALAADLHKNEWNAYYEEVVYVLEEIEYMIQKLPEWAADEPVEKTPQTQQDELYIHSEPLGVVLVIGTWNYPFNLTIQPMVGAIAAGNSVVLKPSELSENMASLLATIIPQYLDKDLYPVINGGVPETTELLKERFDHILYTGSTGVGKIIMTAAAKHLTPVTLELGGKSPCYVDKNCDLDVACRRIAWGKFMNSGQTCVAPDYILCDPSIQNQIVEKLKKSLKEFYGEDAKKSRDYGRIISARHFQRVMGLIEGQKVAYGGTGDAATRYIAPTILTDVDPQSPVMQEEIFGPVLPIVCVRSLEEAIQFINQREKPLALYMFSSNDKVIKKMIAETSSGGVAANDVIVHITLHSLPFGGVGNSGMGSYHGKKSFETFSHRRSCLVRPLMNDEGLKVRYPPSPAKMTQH
The assay can be described thus: Activation of recombinant human ALDH3A1 using benzaldehyde as substrate at 20 uM preincubated for 2 mins with NAD+ followed by substrate addition by UV-Vis spectrophotometric analysis.

The target in assay [2] is T2, Retinaldehyde dehydrogenase 3 (Homo sapiens) (UniProt P47895).
T2 sequence (whole entry): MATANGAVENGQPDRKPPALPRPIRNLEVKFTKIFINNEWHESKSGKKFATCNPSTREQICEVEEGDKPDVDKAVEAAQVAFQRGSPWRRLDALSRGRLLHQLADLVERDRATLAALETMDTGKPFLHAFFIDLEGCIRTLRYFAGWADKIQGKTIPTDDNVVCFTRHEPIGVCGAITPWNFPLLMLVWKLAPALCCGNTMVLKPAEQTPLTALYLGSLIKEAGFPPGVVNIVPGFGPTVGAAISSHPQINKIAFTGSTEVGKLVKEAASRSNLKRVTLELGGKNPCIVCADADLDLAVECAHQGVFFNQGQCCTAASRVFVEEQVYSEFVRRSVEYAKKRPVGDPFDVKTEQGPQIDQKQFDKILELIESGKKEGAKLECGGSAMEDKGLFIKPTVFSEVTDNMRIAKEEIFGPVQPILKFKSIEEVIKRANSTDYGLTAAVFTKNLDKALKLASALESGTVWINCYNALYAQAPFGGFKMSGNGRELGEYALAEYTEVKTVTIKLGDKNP
The assay can be described thus: Activation of recombinant human ALDH1A3 using propionaldehyde as substrate at 20 uM preincubated for 2 mins with NAD+ followed by substrate addition by UV-Vis spectrophotometric analysis.

For assay [3], the target named is T1, Aldehyde dehydrogenase, dimeric NADP-preferring (Homo sapiens). Put plainly: Inhibition of recombinant human ALDH3A1 using benzaldehyde as substrate at 100 uM preincubated for 2 mins with NAD+ followed by substrate addition by UV-Vis spectrophotometric analysis.
The target of assay [4] is T2, Retinaldehyde dehydrogenase 3 (Homo sapiens). The assay can be described thus: Inhibition of recombinant human ALDH1A3 using propionaldehyde as substrate at 100 uM preincubated for 2 mins with NAD+ followed by substrate addition by UV-Vis spectrophotometric analysis.
The target in assay [5] is T3, Aldehyde dehydrogenase X, mitochondrial (Homo sapiens) (UniProt P30837).
T3 sequence (whole entry): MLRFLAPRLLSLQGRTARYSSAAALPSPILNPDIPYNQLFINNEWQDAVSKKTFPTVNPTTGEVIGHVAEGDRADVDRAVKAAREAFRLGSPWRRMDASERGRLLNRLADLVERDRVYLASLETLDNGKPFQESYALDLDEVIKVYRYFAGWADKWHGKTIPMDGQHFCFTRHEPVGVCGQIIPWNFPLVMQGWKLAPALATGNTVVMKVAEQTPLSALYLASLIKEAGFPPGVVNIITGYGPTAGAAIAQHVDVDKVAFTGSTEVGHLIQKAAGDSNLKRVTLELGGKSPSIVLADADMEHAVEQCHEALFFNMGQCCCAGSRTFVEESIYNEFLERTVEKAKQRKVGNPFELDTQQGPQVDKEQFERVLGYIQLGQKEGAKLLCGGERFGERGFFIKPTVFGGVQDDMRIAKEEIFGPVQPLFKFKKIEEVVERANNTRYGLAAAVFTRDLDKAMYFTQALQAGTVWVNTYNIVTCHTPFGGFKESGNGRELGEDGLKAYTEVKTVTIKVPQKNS
The assay can be described thus: Inhibition of recombinant human ALDH1B1 using propionaldehyde as substrate at 100 uM preincubated for 2 mins with NAD+ followed by substrate addition by UV-Vis spectrophotometric analysis.

For assay [6], the target named is T4, Aldehyde dehydrogenase, mitochondrial (Homo sapiens) (UniProt P05091).
T4 sequence (whole entry): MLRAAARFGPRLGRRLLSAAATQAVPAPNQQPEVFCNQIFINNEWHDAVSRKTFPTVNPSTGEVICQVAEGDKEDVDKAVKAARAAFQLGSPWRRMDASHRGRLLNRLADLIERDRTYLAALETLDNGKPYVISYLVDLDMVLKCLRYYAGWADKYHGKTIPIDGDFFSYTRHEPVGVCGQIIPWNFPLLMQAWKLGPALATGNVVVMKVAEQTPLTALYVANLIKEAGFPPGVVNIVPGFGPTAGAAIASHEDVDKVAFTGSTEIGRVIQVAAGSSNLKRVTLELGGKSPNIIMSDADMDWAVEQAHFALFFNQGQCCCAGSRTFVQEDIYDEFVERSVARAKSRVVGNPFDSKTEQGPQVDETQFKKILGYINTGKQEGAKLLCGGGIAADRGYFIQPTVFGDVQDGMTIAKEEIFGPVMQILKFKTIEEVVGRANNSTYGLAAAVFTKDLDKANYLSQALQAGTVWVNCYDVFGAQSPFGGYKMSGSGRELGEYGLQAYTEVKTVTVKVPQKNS
Put plainly: Inhibition of recombinant human ALDH2 using propionaldehyde as substrate at 100 uM preincubated for 2 mins with NAD+ followed by substrate addition by UV-Vis spectrophotometric analysis.

Assay [7] deals with T2, Retinaldehyde dehydrogenase 3 (Homo sapiens). The assay can be described thus: Activation of recombinant human ALDH1A3 using propionaldehyde as substrate at 100 uM preincubated for 2 mins with NAD+ followed by substrate addition by UV-Vis spectrophotometric analysis.
In assay [8] the target is T1, Aldehyde dehydrogenase, dimeric NADP-preferring (Homo sapiens). The assay can be described thus: Activation of recombinant human ALDH3A1 using benzaldehyde as substrate at 100 uM preincubated for 2 mins with NAD+ followed by substrate addition by UV-Vis spectrophotometric analysis.
The target of assay [9] is T5, Aldehyde dehydrogenase 1A1 (Homo sapiens) (UniProt P00352).
T5 sequence (whole entry): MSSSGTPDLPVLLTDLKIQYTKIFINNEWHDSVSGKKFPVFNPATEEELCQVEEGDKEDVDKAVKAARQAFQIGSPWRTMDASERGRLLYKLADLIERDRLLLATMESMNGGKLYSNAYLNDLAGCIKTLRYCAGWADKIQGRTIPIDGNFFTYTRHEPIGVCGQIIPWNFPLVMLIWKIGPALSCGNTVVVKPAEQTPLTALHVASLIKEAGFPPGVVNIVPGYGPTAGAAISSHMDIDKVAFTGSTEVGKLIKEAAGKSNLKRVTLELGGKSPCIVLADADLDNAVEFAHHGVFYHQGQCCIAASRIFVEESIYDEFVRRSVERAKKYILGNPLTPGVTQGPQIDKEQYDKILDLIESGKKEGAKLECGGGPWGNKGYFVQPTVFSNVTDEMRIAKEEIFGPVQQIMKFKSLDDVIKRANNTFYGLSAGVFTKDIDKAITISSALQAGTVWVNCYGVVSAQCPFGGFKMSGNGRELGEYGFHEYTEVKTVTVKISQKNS
Put plainly: Inhibition of recombinant human ALDH1A1 using propionaldehyde as substrate at 100 uM preincubated for 2 mins with NAD+ followed by substrate addition by UV-Vis spectrophotometric analysis relative to control.

Assay [10] deals with T6, Retinal dehydrogenase 2 (Homo sapiens) (UniProt O94788).
T6 sequence (whole entry): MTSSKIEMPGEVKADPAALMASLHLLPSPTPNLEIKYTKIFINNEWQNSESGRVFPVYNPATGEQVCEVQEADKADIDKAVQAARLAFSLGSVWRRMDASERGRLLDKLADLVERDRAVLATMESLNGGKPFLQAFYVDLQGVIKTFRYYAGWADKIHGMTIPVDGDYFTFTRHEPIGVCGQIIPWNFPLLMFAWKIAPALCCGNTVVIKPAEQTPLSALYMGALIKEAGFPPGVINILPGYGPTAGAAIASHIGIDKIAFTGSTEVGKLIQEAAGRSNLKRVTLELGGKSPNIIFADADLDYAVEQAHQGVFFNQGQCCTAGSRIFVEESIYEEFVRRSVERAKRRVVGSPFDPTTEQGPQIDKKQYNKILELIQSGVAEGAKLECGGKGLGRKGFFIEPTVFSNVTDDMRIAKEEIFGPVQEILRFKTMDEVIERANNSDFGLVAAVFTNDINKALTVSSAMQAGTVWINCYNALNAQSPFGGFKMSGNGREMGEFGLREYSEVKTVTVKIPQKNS
The assay can be described thus: Inhibition of recombinant human ALDH1A2 using propionaldehyde as substrate at 100 uM preincubated for 2 mins with NAD+ followed by substrate addition by UV-Vis spectrophotometric analysis.

For assay [11], the target named is T5, Aldehyde dehydrogenase 1A1 (Homo sapiens). The assay can be described thus: Effect on recombinant human ALDH1A1 using propionaldehyde as substrate up to 250 uM preincubated for 2 mins with NAD+ followed by substrate addition by UV-Vis spectrophotometric analysis.
Assay [12] concerns the target T4, Aldehyde dehydrogenase, mitochondrial (Homo sapiens). Put plainly: Activation of recombinant human ALDH2 using propionaldehyde as substrate at 20 uM preincubated for 2 mins with NAD+ followed by substrate addition by UV-Vis spectrophotometric analysis.
Assay [13] has as its target T7, Retinaldehyde dehydrogenase 3 (Homo sapiens, UniProt P47895).
T7 sequence (P47895 whole entry): T2 sequence (whole entry)
The assay can be described thus: Inhibition of recombinant human ALDH1A3 using propionaldehyde as substrate preincubated for 2 mins with NAD+ followed by substrate addition by UV-Vis spectrophotometric analysis.

Assay [14] has as its target T8, Aldehyde dehydrogenase, mitochondrial (Homo sapiens, UniProt P05091).
T8 sequence (P05091 whole entry): T4 sequence (whole entry)
The assay can be described thus: Inhibition of recombinant human ALDH2 using propionaldehyde as substrate preincubated for 2 mins with NAD+ followed by substrate addition by UV-Vis spectrophotometric analysis.

Assay [15] concerns the target T6, Retinal dehydrogenase 2 (Homo sapiens). Put plainly: Activation of recombinant human ALDH1A2 using propionaldehyde as substrate at 20 uM preincubated for 2 mins with NAD+ followed by substrate addition by UV-Vis spectrophotometric analysis.
Assay [16] has the same target. The assay can be described thus: Activation of recombinant human ALDH1A2 using propionaldehyde as substrate at 100 uM preincubated for 2 mins with NAD+ followed by substrate addition by UV-Vis spectrophotometric analysis.

For `CCN1CCN(Cc2nc3c(c(=O)n(C)c(=O)n3C)n2CCC(C)C)CC1`, the Activity in assay [1] and in assay [2] was under 10% each time. Moreover, the inhibition entry in assay [3] and in assay [4] was “inactive” in each case.

In the case of `Cn1c(=O)c2[nH]cnc2n(C)c1=O`, the inhibition result in assay [5], in [3], in [6] and in assay [4] was “inactive” throughout.

For the molecule `CC(C)CCn1c(CN2CCC(C(N)=O)CC2)nc2c1c(=O)n(C)c(=O)n2C`, the result in [7] and in assay [8] was Active. The Activity in assay [1] and in assay [2] was under 10% in each case.

In the case of `Cn1c(=O)c2c(ncn2C)n(C)c1=O`, the inhibition result in assay [9], in assay [10], in assay [5], in [3], in assay [6] and in [4] was “inactive” throughout. The outcome in [11] was inactive.

As to `Cc1ccc(Cn2c(CN3CCN(c4ccccc4)CC3)nc3c2c(=O)n(C)c(=O)n3C)cc1`, the result in assay [7] and in assay [8] was Active. Further, the Activity in [1] and in assay [2] was under 10% each time.

`CCC1CCCCN1Cc1nc2c(c(=O)n(C)c(=O)n2C)n1Cc1cccc(C)c1` (centres undefined): in assay [7], the outcome was Active. Further, the Activity in assay [1] and in assay [2] was under 10% in each case. The inhibition result in assay [3] is “inactive”.

Regarding `CC(C)CCn1c(CN2CCC(C)CC2)nc2c1c(=O)n(C)c(=O)n2C`, the Activity in [12], in [1] and in [2] was under 10% throughout. For the same molecule, the negative-log IC50 (pIC50) in assay [13] and in assay [14] was under 4.00 throughout. Moreover, the inhibition entry in assay [3] was “inactive”.

As to `Cc1cccc(Cn2c(CN3CCN(C(=O)c4ccco4)CC3)nc3c2c(=O)n(C)c(=O)n3C)c1`, the Activity in [15], in assay [1] and in [2] was under 10% each time. The outcome in assay [16] and in [7] was Active. The inhibition result in assay [3] is “inactive”.

The pIC50 is −log10 of the IC50, conventionally taken in molar units.
